Results reported in patent publication US20100247579A1, “THERAPEUTIC AGENT FOR CANCER” (priority 2007, published 2010).
Counter-ions that a name gives are not always drawn. Like-named read-outs stand apart in the source and are kept apart here. One block for each molecule: values may come before it.

Key:
[1] = test system: lymphocytes derived from cancer patient No. PT009 expanded with OKT3 and CH-296; experiment: Resistance to anticancer agents, WST-1 GI50 on cultured lymphocytes of cancer patient No. PT009; type: cell-based, human; details: Homo sapiens, Lymphocyte, day 10 of culture with OKT3 and CH-296, 20 hours with drug, read-out: GI50
Description: After that, the suspension was stained by the trypan blue staining method to calculate the viable cell count, and then subjected to each experiment.
(§1) On the other hand, the IL-2/5HRPMI was added to the control group in 50 μL/well each.
(§2) These culture plates were incubated at 37° C. for 20 hours in the presence of 5% CO2. After the incubation, WST-1 (Premix WST-1 Cell Proliferation Assay System, manufactured by Takara Bio Inc.) was added in 20 μL/well each to each well of the plate, and incubated in the presence of 5% CO2 at 37° C. for 4 hours. The plates after the incubation were centrifuged at 500×g at room temperature for 5 minutes. After the centrifugation, 100 μL of the supernatant was collected from each well, and the absorbance was measured at an absorption wavelength of 450 nm and a control wavelength of 630 nm [hereinafter referred to as the absorbance (450 nm-630 nm)] using a microplate reader (manufactured by Bio-Rad Laboratories, Inc., Model Number 680XR), and then the specific absorbance (450 nm-630 nm) was calculated according to the following formula.
(§3) Specific absorbance (450 nm-630 nm)=Absorbance of Test Cell Addition Group (450 nm-630 nm)−Absorbance of Control Group (450 nm-630 nm) Formula 2: […]

[2] = test system: expanded lymphocytes derived from a human healthy donor; experiment: Resistance to anticancer agents, WST-1 GI50 on cultured lymphocytes of a human healthy donor; type: cell-based; details: Homo sapiens, Lymphocyte
Description: as §1, §2, §3
Here, a group where only OKT3 was immobilized to the culture equipment in the expansion of the lymphocytes was also set.
However, in the case of paclitaxel, a human AB type serum was used as a solvent for dilution, and for other drugs, 5HRPMI was used for dilution.

[3] = test system: lymphocytes expanded from PBMC of cancer patient; experiment: Flow cytometry analysis of naive T-like cell phenotypes in expanded lymphocytes; type: cell-based, human; details: Example 5
Description: The cells on days 10 and 14 of culture, prepared in item (3) of Example 2, were washed with DPBS containing 1% bovine serum albumin (BSA, manufactured by Sigma) (hereinafter referred to as 1% BSA/DPBS) or DPBS, and the cells were suspended in 1% BSA/DPBS, then FITC labeled mouse IgG1/RD1 labeled mouse IgG1/PC5 labeled mouse IgG1 (manufactured by Beckman Coulter Inc.) were added thereto as a negative control. Similarly, cells added with RD1 labeled mouse anti-human CD45RA antibody (manufactured by Beckman Coulter Inc.)/FITC labeled mouse anti-human CCR7 antibody (manufactured by R&D Systems), cells added with RD1 labeled mouse anti-human CD45RA antibody/FITC labeled mouse anti-human CD28 antibody (manufactured by eBioscience, Inc.)/PC5 labeled mouse anti-human CD27 antibody (manufactured by Beckman Coulter Inc.), and cells added with RD1 labeled mouse anti-human CD45RA antibody/FITC labeled mouse anti-human CCR7 antibody/PC5 labeled mouse anti-human CD62L antibody (manufactured by Beckman Coulter Inc.) were prepared. After addition of each antibody, incubation was carried out on ice for 30 minutes. After the incubation, the cells were washed with DPBS containing 0.1% BSA (hereinafter referred to as 0.1% BSA/DPBS), and suspended again in DPBS. The ratio of CCR7^+CD45RA^+ cells, CD27^+CD45RA^+ cells, CD28^+CD45RA^+ cells, CD62L^+CD45RA^+ cells, and CCR7^+CD62L^+CD45RA^+ cells of each cell population was calculated. […]
With respect to the cells on days 10 and 14 of culture, prepared in item (2) of Example 5, analysis of CCR7^+CD45RA^+ cells, CD62L^+CD45RA^+ cells, and CCR7^+CD62L^+CD45RA^+ cells was performed similarly to the method described in item (4) of Example 2.

PBMC of cancer patient = experiment: Expansion of lymphocytes from PBMC of cancer patients in plate/flask, OKT3 alone versus OKT3 and CH-296; type: cell-based, human
Description: The OKT3 and the CH-296 were immobilized to the culture equipment used in the following experiment. That is, an ACD-A solution containing OKT3 (final concentration: 5 μg/mL) and CH-296 (final concentration: 25 μg/mL) was added to a 12-well cell culture plate (manufactured by Corning Inc.) in a volume of 0.45 mL/well each, and incubated at 37° C. for 5 hours in 5% CO2. On this occasion, a group wherein only OKT3 was immobilized was set. The ACD-A solution containing the OKT3 or the OKT3 and the CH-296 was removed from the culture equipment by aspiration just before use, washed twice with DPBS and once with the RPMI 1640 medium, and then subjected to each experiment.
The PBMC of 0.53×10^6 cells derived from the cancer patient and separated in item (1) of Example 2 was suspended in 5.3 mL of 0.6% plasma containing KBM551 or 0.2% HSA/GT-T503, and added to the plate immobilized with the OKT3 or the OKT3 and the CH-296 as prepared in item (1) of Example 5. IL-2 was added thereto so as to have a final concentration of 200 U/mL and the mixture was incubated at 37° C. under 5% CO2 (on day 0 of culture). On day 4 of culture, the cell solution in each well was suspended, and a part of the suspension was diluted 8.3-fold using 0.6% plasma-containing KBM551 or 0.2% HSA/GT-T503. Then, 7.8 mL of the diluted solution was transferred to a 25 cm^2-cell culture flask (manufactured by Corning Inc.) to which nothing was immobilized, and added with IL-2 to each final concentration of 200 U/mL. The culture was continued, and on day 7, a plasma free KBM551 or a 0.2% HSA/GT-T503 was added to the culture solution in each group in an equivalent amount to dilute two-fold, and then added with IL-2 so as to have each final concentration of 200 U/mL. On day 10 of culture, the cell solution in each group was diluted two-fold using a plasma free KBM551 or a 0.2% HSA/GT-T503, and 15.6 mL each of the diluted solution was transferred to a fresh standing 25 cm^2-cell culture flask to which nothing was immobilized. IL-2 was added thereto so as to have a final concentration of 200 U/mL in each group. On days 10 and 14 from the start of culture, the number of viable cells was counted by the trypan blue staining method and an expansion fold was calculated by comparing the number of counted cells with the number of cells at the start of culture.

[4] = test system: X-ray irradiated PBMCs derived from an allogeneic donor (stimulator cells); experiment: Allogeneic mixed lymphocyte reaction (MLR) using cultured lymphocytes (expansion fold); type: cell-based, human
[5] = test system: PHA blast cells from non-autologous healthy donor; experiment: Non-autologous specific cytotoxicity after allogeneic MLR (Calcein-AM); type: cell-based, human; details: E/T ratio 90
Description: The PBMCs derived from a non-autologous healthy donor, prepared in item (2) of Example 6, were adjusted with 5HRPMI to 1×10^6 cells/mL, and seeded to a 6-well cell culture plate (manufactured by Corning Inc.) in a volume of 3 mL each. IL-2 was added thereto to a final concentration of 100 U/mL and phytohemaaglutinin (manufactured by Sigma, hereinafter referred to as PHA) was added thereto to a final concentration of 2 μg/mL, and the cells were cultured at 37° C. in 5% CO2. On day 4 of culture, 12 mL of 5HRPMI was added to the cell culture and IL-2 was added thereto to a final concentration of 100 U/mL. Thereafter, the cell culture was dispensed into a 6-well cell culture plate so as to have a volume of 5 mL/well. The culture was continued until day 7 of culture, thereby preparing PHA blast (blastogenic) cells.
Using the cells on day 7 of culture prepared in item (3) of Example 6, non-autologous specific cytotoxicity was assayed in the same manner as in item (5) of Example 2, except that the PHA blast cells which had been subjected to blastogenic cells in item (4) of Example 6 were used as the target cells which were incubated at 37° C. for 2 hours after addition of calcein-AM. These calcein-labeled target cells were mixed with a 30-fold amount of K562 cells, and the cytotoxicity was assayed using these target cells for determining the cytotoxicity. […]

[6] = PBMC of patient PT003, 0.2% HSA/GT-T503
[7] = PBMC of patient PT006 (breast cancer), KBM551
[8] = PBMC of patient PT008 (laryngeal cancer), KBM551
[9] = PBMC of patient PT012 (rectal cancer), KBM551

GI50 [1]: 0.2 µg/mL
Molecule: CC[C@]1(O)C[C@H]2CN(CCc3c([nH]c4ccccc34)[C@@](C(=O)OC)(c3cc4c(cc3OC)N(C=O)[C@H]3[C@@](O)(C(=O)OC)[C@H](OC(C)=O)[C@]5(CC)C=CCN6CC[C@]43[C@@H]65)C2)C1 [Vincristine Sulfate, vincristine sulfate]
GI50 ([2]; healthy donor lymphocytes expanded with OKT3 + CH-296, read-out: GI50 (μg/mL) Initial Stimulation OKT3 + CH-296): 24.3 µg/mL
GI50 ([2]; healthy donor lymphocytes expanded with OKT3 alone, read-out: GI50 (μg/mL) Initial Stimulation OKT3): 4.42 µg/mL

Molecule: OKT3: Anti-CD3 monoclonal antibody (OKT3), immobilized alone to the culture equipment as initial stimulation
CCR7^+CD45RA^+ (%) On Day 10 from Start of Culture [3, 6]: 13.3%
CCR7^+CD62L^+CD45RA^+ (%) On Day 10 from Start of Culture [3, 6]: 13.1%
CD62L^+CD45RA^+ (%) On Day 10 from Start of Culture [3, 6]: 52.5%
CCR7^+CD45RA^+ (%) On Day 10 from Start of Culture ([3]; PBMC of patient PT003, KBM551): 5.4%
CCR7^+CD62L^+CD45RA^+ (%) On Day 10 from Start of Culture ([3]; PBMC of patient PT003, KBM551): 5.1%
CD62L^+CD45RA^+ (%) On Day 10 from Start of Culture ([3]; PBMC of patient PT003, KBM551): 50.9%
CCR7^+CD45RA^+ (%) On Day 10 from Start of Culture ([3]; PBMC of patient PT006, KBM551): 24.9%
CCR7^+CD45RA^+ (%) On Day 14 from Start of Culture ([3]; PBMC of patient PT006, KBM551): 36.9%
CCR7^+CD62L^+CD45RA^+ (%) On Day 10 from Start of Culture ([3]; PBMC of patient PT006, KBM551): 24.6%
CCR7^+CD62L^+CD45RA^+ (%) On Day 14 from Start of Culture ([3]; PBMC of patient PT006, KBM551): 36.7%
CD62L^+CD45RA^+ (%) On Day 10 from Start of Culture ([3]; PBMC of patient PT006, KBM551): 79.2%
CD62L^+CD45RA^+ (%) On Day 14 from Start of Culture ([3]; PBMC of patient PT006, KBM551): 75.7%
CCR7^+CD45RA^+ (%) On Day 10 from Start of Culture ([3]; PBMC of patient PT008, KBM551): 4.6%
CCR7^+CD45RA^+ (%) On Day 14 from Start of Culture ([3]; PBMC of patient PT008, KBM551): 4.2%
CCR7^+CD62L^+CD45RA^+ (%) On Day 10 from Start of Culture ([3]; PBMC of patient PT008, KBM551): 4.2%
CCR7^+CD62L^+CD45RA^+ (%) On Day 14 from Start of Culture ([3]; PBMC of patient PT008, KBM551): 3.9%
CD62L^+CD45RA^+ (%) On Day 10 from Start of Culture ([3]; PBMC of patient PT008, KBM551): 53.0%
CCR7^+CD45RA^+ (%) On Day 10 from Start of Culture ([3]; PBMC of patient PT012, KBM551): 19.4%
CCR7^+CD45RA^+ (%) On Day 14 from Start of Culture ([3]; PBMC of patient PT012, KBM551): 25.0%
CCR7^+CD62L^+CD45RA^+ (%) On Day 10 from Start of Culture ([3]; PBMC of patient PT012, KBM551): 17.1%
CCR7^+CD62L^+CD45RA^+ (%) On Day 14 from Start of Culture ([3]; PBMC of patient PT012, KBM551): 23.4%
CD62L^+CD45RA^+ (%) On Day 10 from Start of Culture ([3]; PBMC of patient PT012, KBM551): 56.0%
CD62L^+CD45RA^+ (%) On Day 14 from Start of Culture ([3]; PBMC of patient PT012, KBM551): 43.4%
Expansion Fold (Fold) On Day 10 from Start of Culture (PBMC of cancer patient; PBMC of patient PT003 (breast cancer), 0.2% HSA/GT-T503): ×200 Fold
Expansion Fold (Fold) On Day 10 from Start of Culture (PBMC of cancer patient; PBMC of patient PT003 (breast cancer), KBM551): ×193 Fold
Expansion Fold (Fold) On Day 10 from Start of Culture (PBMC of cancer patient; [7]): ×202 Fold
Expansion Fold (Fold) On Day 14 from Start of Culture (PBMC of cancer patient; [7]): ×382 Fold
Expansion Fold (Fold) On Day 10 from Start of Culture (PBMC of cancer patient; [8]): ×119 Fold
Expansion Fold (Fold) On Day 14 from Start of Culture (PBMC of cancer patient; [8]): ×292 Fold
Expansion Fold (Fold) On Day 10 from Start of Culture (PBMC of cancer patient; [9]): ×281 Fold
Expansion Fold (Fold) On Day 14 from Start of Culture (PBMC of cancer patient; [9]): ×723 Fold
Expansion Rate (Fold) ([4]; lymphocytes of patient PT012, 10 days of lymphocyte expansion, responder:stimulator 1:0): x3.0 Fold
Expansion Rate (Fold) ([4]; lymphocytes of patient PT012, 10 days of lymphocyte expansion, responder:stimulator 1:1): x5.3 Fold
Expansion Rate (Fold) ([4]; lymphocytes of patient PT012, 14 days of lymphocyte expansion, responder:stimulator 1:0): x1.1 Fold
Expansion Rate (Fold) ([4]; lymphocytes of patient PT012, 14 days of lymphocyte expansion, responder:stimulator 1:1): x3.7 Fold
Cytotoxicity (%) ([5]; lymphocytes of patient PT012, 10 days of lymphocyte expansion): 15.2%
Cytotoxicity (%) ([5]; lymphocytes of patient PT012, 14 days of lymphocyte expansion): 27.6%
